From US10647669B2, “Composition containing lutein/lutein ester and applications thereof” (priority 2016, dated 2020)

Experiment: Effect of pH on the stability of lutein/lutein ester (absorbance of acetone aqueous solutions)
Type: physicochemical
Conditions: for Absorbance value: acetone aqueous solution; for Retention: after placing for 96 h at pH 1.5; for Change of absorbance values: under strong acid conditions
Method: Effect of pH on the Stability of Lutein/Lutein Ester The acetone aqueous solutions of lutein and lutein ester with pH 1.5 and pH 3 were prepared respectively, and the absorbance values at different time period are shown as follows: […]

Molecule | Absorbance value (pH 1.5, 0 h) | Absorbance value (pH 1.5, 12 h) | Absorbance value (pH 1.5, 24 h) | Absorbance value (pH 1.5, 36 h) | Absorbance value (pH 1.5, 48 h) | Absorbance value (pH 1.5, 96 h) | Absorbance value (pH 3.0, 0 h) | Absorbance value (pH 3.0, 12 h) | Absorbance value (pH 3.0, 24 h) | Absorbance value (pH 3.0, 36 h) | Absorbance value (pH 3.0, 48 h) | Absorbance value (pH 3.0, 96 h) | Retention [%] | Change of absorbance values
CC1=C[C@H](O)CC(C)(C)[C@H]1/C=C/C(C)=C/C=C/C(C)=C/C=C/C=C(C)/C=C/C=C(C)/C=C/C1=C(C)C[C@@H](O)CC1(C)C [Lutein, lutein] | 0.843 | 0.559 | 0.452 | 0.368 | 0.267 | 0.151 | 0.845 | 0.566 | 0.495 | 0.428 | 0.341 | 0.268 | 17.80 | decrease significantly
lutein ester | 0.844 | 0.588 | 0.466 | 0.377 | 0.259 | 0.155 | 0.837 | 0.597 | 0.502 | 0.439 | 0.356 | 0.274 | 18.36 | decrease significantly
